Consider 2 compounds from patent US6525056B2, “Heterocyclyl-substituted ring-fused pyridines and pyrimidines as corticotropin releasing hormone (CRH) antagonists, useful for treating cns and stress-related disorders” (Bristol-Myers Squibb Company, priority 1997, dated 2003).

As usually defined, the melting point is the temperature, or range, at which the solid turns liquid.

As for `COCC[C@@H](COC)n1nnc2c(N3CCc4cc(Br)cc(Br)c43)nc(C)cc21` [Example 1, (S)-4-(5,7-Dibromo-2,3-dihydro-1H-indol-1-yl)-1-[1-(methoxymethyl)-3-methoxypropyl]-6-methyl-1H-1,2,3-triazolo[4,5-c]pyridine], the melting point is 136 to 138 °C. `Cc1nc(N2CCc3cc(Cl)cc(Cl)c32)c2c(C)nn(Cc3ccccc3)c2n1` [Example 414] came in with a melting point of 145 to 146 °C.
